Tested on: IL-12 induction of IFN-γ in PHA-activated human PBMC
Test: Screening assay for compounds which inhibit IL-12 induction of IFN-γ (ELISA)
Format: cell-based
Conditions: 5 μg/ml, IL-2 25 U/ml + IL-12 0.5 ng/ml, 48 hr, single test, read-out: % INH of IFNγ
Protocol: Human peripheral blood monocytes (PBMC) were obtained from commercial sources as a leukophoresis from a healthy volunteer and were purified by centrifugation on a Ficoll-Hypaque (Pharmacia) gradient (1700 rpm for 20 min). The "buffy" coat containing the PBMC was diluted with serum-free culture medium (SF-RPMI) to a volume of 50 ml and collected by centrifugation at 1500 rpm for 5 min. Cells were resuspended in cell culture medium containing 10% fetal bovine serum (RPMI-10) and phytohemaglutinin (PHA - 10 μg/ml) at a density of 5×10^6 cells/ml and were cultured for 3 days at 37° C. in a humidified CO2 incubator. The PHA-activated cells were collected by centrifugation, washed three times with an equal volume of SF-RPMI and resuspended in fresh RPMI-10 (1×10^6 cells /ml). Aliquots (100 μl) were dispensed into the wells of multiple 96-well plates to give a final cell number of 10^5 per well. Test compounds, dissolved in dimethyl sulfoxide (DMSO) at 1 mg/ml, were first diluted in culture medium to an intermediate concentration of 20 μg/ml and then were added (50 μwell) to a specific well of the plate for each compound. Stimulation medium (50 μl/well) containing 10% serum, IL-2 and IL-12 was added to final concentrations of 25 U/ml and 0.5 ng/ml, respectively. Control wells receive no IL-2 or IL-12 (negative control) or received both interleukins but no test compound (positive control). The plates were incubated for 48 hr at 37° C. in a CO2 incubator at which time aliquots (20 μl) were removed for analysis of IFN-γ concentration by ELISA. A quantitative ELISA was developed by coating 96-well plates with an mouse monoclonal antibody against human IFN-γ, 1 μg/ml in phosphate buffered saline (PBS) (Pestka Biological Laboratories), overnight at 4° C. Unbound antibody was washed off by washing three times with PBS. Non-specific antibody binding was blocked with a solution of 1% bovine serum albumin (BSA) and 1% goat serum in PBS (150 μl/well) which was incubated for 2 hr at 37° C. After washing the blocked plates four times with PBS, test samples and dilutions of the IFN-γ standard are added in a final volume of 100 μl/well. Following an overnight incubation at 4° C., the plates are washed four times with PBS, and a polyclonal rabbit antiserum against human IFN-γ (1/10000 dilution--Petska Biological Laboratories) is added. After an additional incubation for 1 hr at 37° C. and four washes with PBS, a polyclonal donkey anti-rabbit detecting antibody, conjugated to horseradish peroxidase (1/700 dilution--Petska Biological Laboratories) is added for 1 hr at 37° C. The plates are then washed four times with PBS and 100 μl of K-blue substrate E(ILISA Technologies, Neogen Corp.) is added until the color in the wells containing the standard curve is sufficiently developed, at which time 100 μl of "Red-stop" solution (ELISA Technologies) is added. The absorbance of the solution within each well of the plate is then read at 650 nm using an ELISA plate reader (Dynatech MR7000). The amount of IFN-γ is calculated by comparing the optical density of the test sample with a standard curve derived from the dilutions of the control IFN-y. The amount of IFN-γ that is induced in the presence of both IL-2 and IL-12 generally ranges from 1200-2000 pg/ml while the amount produced in the absence of IL-12 is generally less than 50 pg/ml. Experimental data are shown in Table 2 which discloses a) the percent inhibition of IFNγ production, relative to a […], when the cells have been treated with a bis-compound at a final concentration of 5 μg/ml of the listed bis-compound (%INH or IFNγ) and b) the percent of cells which are viable after the treatment with 5 μg/ml of the various bis-compounds, determined by adding MTS to the media (% Viability). MTS is a chemical chromophore that is metabolized in the mitochondria of viable cells to produce a color which increases in intensity in proportion to the numbers of viable cells. […]

| SMILES | inhibition at 5 µg/mL |
| --- | --- |
| CCCCCCCC(c1cc(C)cc(C)c1O)c1cc(C)cc(C)c1O [Compound 51852] | 109% |
| Cc1cc(C)c(O)c(C(CC(C)CC(C)(C)C)c2cc(C)cc(C)c2O)c1 (centres unmarked) [Compound 51853, bis-1,1-[2-hydroxy-3,5-dimethylphenyl]-3,5,5-dimethyl hexan] | 104% |

Source: US5880146A, “Inhibition of IL-12-induced IFN-γ synthesis by specific bis-phenol compounds as a method of immune modulation” (Fuji ImmunoPharmaceuticals Corporation, priority 1995, dated 1999)
